Laboratory results as given in ChEMBL document CHEMBL1687830, “Evaluation of ceftazidime and NXL104 in two murine models of infection due to KPC-producing Klebsiella pneumoniae” (2011).
≈ marks a conversion by molar mass, not a printed value.

What was measured:
Format in all cases: functional
Klebsiella pneumoniae [1] = assay: Antimicrobial activity against carbapenemases KPC-producing Klebsiella pneumoniae VA-361 infected in sc dosed CD-1 mouse in presence of 1 ug/ml NXL104 beta-lactamase inhibitor
Klebsiella pneumoniae [2] = assay: Antimicrobial activity against carbapenemases KPC-producing Klebsiella pneumoniae VA-361 infected in sc dosed CD-1 mouse in presence of 2 ug/ml NXL104 beta-lactamase inhibitor
Klebsiella pneumoniae [3] = assay: Antimicrobial activity against carbapenemases KPC-producing Klebsiella pneumoniae VA-361 infected in sc dosed CD-1 mouse in presence of 4 ug/ml NXL104 beta-lactamase inhibitor
Klebsiella pneumoniae [4] = assay: Antimicrobial activity against carbapenemases KPC-producing Klebsiella pneumoniae VA-361 infected in sc dosed CD-1 mouse in presence of 4 ug/ml cavulanate beta-lactamase inhibitor
Klebsiella pneumoniae [5] = assay: Antimicrobial activity against carbapenemases KPC-producing Klebsiella pneumoniae VA-361 infected in sc dosed CD-1 mouse
Klebsiella pneumoniae [6] = assay: Antimicrobial activity against carbapenemases KPC-producing Klebsiella pneumoniae VA-406 infected in sc dosed CD-1 mouse in presence of 1 ug/ml NXL104 beta-lactamase inhibitor
Klebsiella pneumoniae [7] = assay: Antimicrobial activity against carbapenemases KPC-producing Klebsiella pneumoniae VA-406 infected in sc dosed CD-1 mouse in presence of 2 ug/ml NXL104 beta-lactamase inhibitor
Klebsiella pneumoniae [8] = assay: Antimicrobial activity against carbapenemases KPC-producing Klebsiella pneumoniae VA-406 infected in sc dosed CD-1 mouse in presence of 4 ug/ml NXL104 beta-lactamase inhibitor
Klebsiella pneumoniae [9] = assay: Antimicrobial activity against carbapenemases KPC-producing Klebsiella pneumoniae VA-406 infected in sc dosed CD-1 mouse in presence of 4 ug/ml Tazobactam beta-lactamase inhibitor
Klebsiella pneumoniae [10] = assay: Antimicrobial activity against carbapenemases KPC-producing Klebsiella pneumoniae VA-406 infected in sc dosed CD-1 mouse in presence of 4 ug/ml cavulanate beta-lactamase inhibitor
Klebsiella pneumoniae [11] = assay: Antimicrobial activity against carbapenemases KPC-producing Klebsiella pneumoniae VA-406 infected in sc dosed CD-1 mouse
Klebsiella pneumoniae [12] = assay: Antimicrobial activity against carbapenemases KPC-producing Klebsiella pneumoniae VA-361 infected in sc dosed CD-1 mouse in presence of 4 ug/ml Tazobactam beta-lactamase inhibitor
Klebsiella pneumoniae [13] = assay: Antimicrobial activity against Klebsiella pneumoniae ATCC 13883 infected in sc dosed CD-1 mouse septicemia infection model by acute lethal septicemia analysis; details: ATCC 13883, sc
Klebsiella pneumoniae [14] = assay: Antimicrobial activity against carbapenemases KPC-producing Klebsiella pneumoniae VA-361 infected in sc dosed CD-1 mouse septicemia infection model by acute lethal septicemia analysis; details: VA-361, sc
Klebsiella pneumoniae [15] = assay: Antimicrobial activity against carbapenemases KPC-producing Klebsiella pneumoniae VA-406 infected in sc dosed CD-1 mouse septicemia infection model by acute lethal septicemia analysis; details: VA-406, sc
Klebsiella pneumoniae [16] = assay: Antimicrobial activity against Klebsiella pneumoniae ATCC 13883 infected in sc dosed CD-1 mouse septicemia infection model at 2:1 compound to NXL104 beta-lactamase inhibitor ratio by acute lethal septicemia analysis; details: ATCC 13883, sc
Klebsiella pneumoniae [17] = assay: Antimicrobial activity against carbapenemases KPC-producing Klebsiella pneumoniae VA-361 infected in sc dosed CD-1 mouse septicemia infection model at 2:1 compound to NXL104 beta-lactamase inhibitor ratio by acute lethal septicemia analysis; details: VA-361, sc
Klebsiella pneumoniae [18] = assay: Antimicrobial activity against carbapenemases KPC-producing Klebsiella pneumoniae VA-406 infected in sc dosed CD-1 mouse septicemia infection model at 2:1 compound to NXL104 beta-lactamase inhibitor ratio by acute lethal septicemia analysis; details: VA-406, sc
Klebsiella pneumoniae [19] = assay: Antimicrobial activity against Klebsiella pneumoniae ATCC 13883 infected in sc dosed CD-1 mouse septicemia infection model at 4:1 compound to NXL104 beta-lactamase inhibitor ratio by acute lethal septicemia analysis; details: ATCC 13883, sc
Klebsiella pneumoniae [20] = assay: Antimicrobial activity against carbapenemases KPC-producing Klebsiella pneumoniae VA-361 infected in sc dosed CD-1 mouse septicemia infection model at 4:1 compound to NXL104 beta-lactamase inhibitor ratio by acute lethal septicemia analysis; details: VA-361, sc
Klebsiella pneumoniae [21] = assay: Antimicrobial activity against carbapenemases KPC-producing Klebsiella pneumoniae VA-406 infected in sc dosed CD-1 mouse septicemia infection model at 4:1 compound to NXL104 beta-lactamase inhibitor ratio by acute lethal septicemia analysis; details: VA-406, sc
Klebsiella pneumoniae [22] = assay: Antimicrobial activity against Klebsiella pneumoniae ATCC 13883 infected in sc dosed CD-1 mouse septicemia infection model at 8:1 compound to NXL104 beta-lactamase inhibitor ratio by acute lethal septicemia analysis; details: ATCC 13883, sc
Klebsiella pneumoniae [23] = assay: Antimicrobial activity against carbapenemases KPC-producing Klebsiella pneumoniae VA-361 infected in sc dosed CD-1 mouse septicemia infection model at 8:1 compound to NXL104 beta-lactamase inhibitor ratio by acute lethal septicemia analysis; details: VA-361, sc
Klebsiella pneumoniae [24] = assay: Antimicrobial activity against carbapenemases KPC-producing Klebsiella pneumoniae VA-406 infected in sc dosed CD-1 mouse septicemia infection model at 8:1 compound to NXL104 beta-lactamase inhibitor ratio by acute lethal septicemia analysis; details: VA-406, sc
Klebsiella pneumoniae [25] = assay: Antimicrobial activity against carbapenemases KPC-producing Klebsiella pneumoniae VA-361 infected in sc dosed CD-1 mouse septicemia infection model at 16:1 compound to NXL104 beta-lactamase inhibitor ratio by acute lethal septicemia analysis; details: VA-361, sc
Klebsiella pneumoniae [26] = assay: Antimicrobial activity against carbapenemases KPC-producing Klebsiella pneumoniae VA-406 infected in sc dosed CD-1 mouse septicemia infection model at 16:1 compound to NXL104 beta-lactamase inhibitor ratio by acute lethal septicemia analysis; details: VA-406, sc
Klebsiella pneumoniae [27] = assay: (§1) Antimicrobial activity against carbapenemases KPC-producing Klebsiella pneumoniae VA-406 infected in CD-1 mouse thigh infection model assessed as change in log10 CFU reduction per thigh treated 1.5 hr post infection at >=1024:256 mg/kg, sc compound to NXL104 beta-lactamase inhibitor ratio after 24 hrs by acute lethal septicemia analysis (reference value: 8.67 log10CFU/thigh)
Klebsiella pneumoniae [28] = assay: as §1, with “VA-361” for “VA-406”, “>=512:128” for “>=1024:256”, “8.93” for “8.67”
Klebsiella pneumoniae [29] = assay: as §1, with “>=512:128” for “>=1024:256”
Klebsiella pneumoniae [30] = assay: as §1, with “VA-361” for “VA-406”, “>=256:64” for “>=1024:256”, “8.93” for “8.67”
Klebsiella pneumoniae [31] = assay: as §1, with “>=256:64” for “>=1024:256”
Klebsiella pneumoniae [32] = assay: as §1, with “VA-361” for “VA-406”, “>=128:32” for “>=1024:256”, “8.93” for “8.67”
Klebsiella pneumoniae [33] = assay: as §1, with “>=128:32” for “>=1024:256”
Klebsiella pneumoniae [34] = assay: as §1, with “VA-361” for “VA-406”, “>=64:16” for “>=1024:256”, “8.93” for “8.67”
Klebsiella pneumoniae [35] = assay: as §1, with “>=64:16” for “>=1024:256”, “analysis” for “analysis (reference value: 8.67 log10CFU/thigh)”
Klebsiella pneumoniae [36] = assay: as §1, with “VA-361” for “VA-406”, “>=32:8” for “>=1024:256”, “8.93” for “8.67”
Klebsiella pneumoniae [37] = assay: as §1, with “>=32:8” for “>=1024:256”
Klebsiella pneumoniae [38] = assay: as §1, with “>=16:4” for “>=1024:256”

Q: With `CO/N=C(\C(=O)N[C@@H]1C(=O)N2C(C(=O)[O-])=C(C[N+]3(C)CCCC3)CS[C@H]12)c1csc(N)n1` [CEFEPIME] as the compound, how does the MIC (Klebsiella pneumoniae [1]) read?
A: 0.5 µg/mL

Q: What about the MIC (Klebsiella pneumoniae [2]) of the same compound?
A: 0.25 µg/mL

Q: What about the MIC (Klebsiella pneumoniae [3]) of the same compound?
A: ≤ 0.06 µg/mL

Q: And the MIC (Klebsiella pneumoniae [4])?
A: 8 µg/mL

Q: What about the MIC (Klebsiella pneumoniae [5]) of the same compound?
A: 32 µg/mL (≈ 66.6 µM)

Q: And the MIC (Klebsiella pneumoniae [6])?
A: 0.5 µg/mL

Q: And the MIC (Klebsiella pneumoniae [7])?
A: 0.5 µg/mL

Q: What about the MIC (Klebsiella pneumoniae [8]) of the same compound?
A: 0.125 µg/mL

Q: And the MIC (Klebsiella pneumoniae [9])?
A: 128 µg/mL

Q: And the MIC (Klebsiella pneumoniae [10])?
A: 128 µg/mL

Q: And the MIC (Klebsiella pneumoniae [11])?
A: 256 µg/mL (≈ 533 µM)

Q: How did the MIC (Klebsiella pneumoniae [1]) turn out when `CO/N=C(\C(=O)N[C@@H]1C(=O)N2C(C(=O)O)=C(COC(C)=O)CS[C@H]12)c1csc(N)n1` [CEFOTAXIME] was run?
A: 0.5 µg/mL

Q: And the MIC (Klebsiella pneumoniae [2])?
A: 0.5 µg/mL

Q: What about the MIC (Klebsiella pneumoniae [3]) of the same compound?
A: 0.125 µg/mL

Q: What about the MIC (Klebsiella pneumoniae [12]) of the same compound?
A: 16 µg/mL

Q: What about the MIC (Klebsiella pneumoniae [4]) of the same compound?
A: 16 µg/mL

Q: And the MIC (Klebsiella pneumoniae [5])?
A: 64 µg/mL (≈ 141 µM)

Q: And the MIC (Klebsiella pneumoniae [6])?
A: 0.5 µg/mL

Q: What about the MIC (Klebsiella pneumoniae [7]) of the same compound?
A: 0.5 µg/mL

Q: What about the MIC (Klebsiella pneumoniae [8]) of the same compound?
A: 0.125 µg/mL

Q: What about the MIC (Klebsiella pneumoniae [9]) of the same compound?
A: 256 µg/mL

Q: What about the MIC (Klebsiella pneumoniae [10]) of the same compound?
A: 256 µg/mL

Q: And the MIC (Klebsiella pneumoniae [11])?
A: ≥ 512 µg/mL

Q: `CC(C)(O/N=C(\C(=O)N[C@@H]1C(=O)N2C(C(=O)[O-])=C(C[n+]3ccccc3)CS[C@H]12)c1csc(N)n1)C(=O)O` [CEFTAZIDIME] was tested. Which MIC (Klebsiella pneumoniae [1]) did it give?
A: 8 µg/mL

Q: What about the MIC (Klebsiella pneumoniae [2]) of the same compound?
A: 4 µg/mL

Q: And the MIC (Klebsiella pneumoniae [3])?
A: 0.25 µg/mL

Q: What about the MIC (Klebsiella pneumoniae [12]) of the same compound?
A: 128 µg/mL

Q: And the MIC (Klebsiella pneumoniae [4])?
A: 128 µg/mL

Q: What about the MIC (Klebsiella pneumoniae [5]) of the same compound?
A: 256 µg/mL (≈ 468 µM)

Q: What about the MIC (Klebsiella pneumoniae [6]) of the same compound?
A: 8 µg/mL

Q: And the MIC (Klebsiella pneumoniae [7])?
A: 2 µg/mL

Q: What about the MIC (Klebsiella pneumoniae [8]) of the same compound?
A: ≤ 0.06 µg/mL

Q: What about the MIC (Klebsiella pneumoniae [9]) of the same compound?
A: 256 µg/mL

Q: And the MIC (Klebsiella pneumoniae [10])?
A: 256 µg/mL

Q: What about the MIC (Klebsiella pneumoniae [11]) of the same compound?
A: ≥ 512 µg/mL

Q: What about the ED50 (Klebsiella pneumoniae [13]) of the same compound?
A: 1.9 mg/kg

Q: What about the ED50 (Klebsiella pneumoniae [14]) of the same compound?
A: 1580 mg/kg

Q: What about the ED50 (Klebsiella pneumoniae [15]) of the same compound?
A: 709 mg/kg

Q: What about the ED50 (Klebsiella pneumoniae [16]) of the same compound?
A: 1 mg/kg

Q: And the ED50 (Klebsiella pneumoniae [17])?
A: 8.1 mg/kg

Q: And the ED50 (Klebsiella pneumoniae [18])?
A: 3.5 mg/kg

Q: And the ED50 (Klebsiella pneumoniae [19])?
A: 1.1 mg/kg

Q: And the ED50 (Klebsiella pneumoniae [20])?
A: 15.1 mg/kg

Q: And the ED50 (Klebsiella pneumoniae [21])?
A: 3.8 mg/kg

Q: And the ED50 (Klebsiella pneumoniae [22])?
A: 0.62 mg/kg

Q: And the ED50 (Klebsiella pneumoniae [23])?
A: 16.9 mg/kg

Q: What about the ED50 (Klebsiella pneumoniae [24]) of the same compound?
A: 7.2 mg/kg

Q: What about the ED50 (Klebsiella pneumoniae [25]) of the same compound?
A: 29.5 mg/kg

Q: What about the ED50 (Klebsiella pneumoniae [26]) of the same compound?
A: 12.1 mg/kg

Q: What about the log10cfu (Klebsiella pneumoniae [27]) of the same compound?
A: -1.59

Q: And the log10cfu (Klebsiella pneumoniae [28])?
A: -1.47

Q: And the log10cfu (Klebsiella pneumoniae [29])?
A: -1.03

Q: And the log10cfu (Klebsiella pneumoniae [30])?
A: -0.85

Q: And the log10cfu (Klebsiella pneumoniae [31])?
A: -1.02

Q: And the log10cfu (Klebsiella pneumoniae [32])?
A: 1.88

Q: And the log10cfu (Klebsiella pneumoniae [33])?
A: -0.46

Q: And the log10cfu (Klebsiella pneumoniae [34])?
A: 2.19

Q: And the log10cfu (Klebsiella pneumoniae [35])?
A: 2.06

Q: What about the log10cfu (Klebsiella pneumoniae [36]) of the same compound?
A: 2.32

Q: And the log10cfu (Klebsiella pneumoniae [37])?
A: 2.33

Q: What about the log10cfu (Klebsiella pneumoniae [38]) of the same compound?
A: 2.69
